Data set [1] can be described thus: Agar diffusion antibacterial activity. In kind it is cell-based. Particulars: Pseudomonas aureus; for Zone of Inhibition (mm) (average of 3 plates): Compound A approx. 22 μg/disk, Gentamicin 10 mcg per disk, 30-35° C., 2 days. The method, then: (§1) The antibiotic activity of Compound A (as the hydrochloride salt) was tested by Agar Diffusion against the following bacterial strains: Staphylococcus aureus, Salmonella typhimurium, Escherichia coli and Pseudomonas aureus. The antibiotic activity of Compound A was compared to that observed for the antibiotic gentamicin (positive control antibiotic). 0.85% saline solution was used as a negative control. The protocol is provided below. A solution containing Compound A hydrochloride, 20 ug per disk, was added to BBL™ Sensi-Disc™. Fifteen Petri dish filled with an agar medium were prepared a day before their use. These were utilized for testing of 5 microorganisms (4 bacterial species including Staphylococcus aureus, Salmonella typhimurium, Pseudomonas aeruginosa, and Escherichia coli, and one fungus (Candida albicans). Triplicate plates were then streaked with each specific microorganism. Twelve plates to be utilized for antibacterial testing were applied with positive control and negative control discs. Positive control discs are impregnated with gentamycin and are available from Becton, Dickinson and Co (ready to be used cartridges, “BBL™ Sensi-Disc™ Antimicrobial Susceptibility Test Discs”). Negative control discs were prepared by soaking dry disks with normal saline solution. These discs were applied by means of a BBL™ dispenser, using aseptic precautions. The remaining (three) plates to be utilized for antifungal properties were also applied with positive and negative controls; however, in this case positive control discs were impregnated with nystatin (available as BBL™ Taxo™ Nystatin Discs Cartridge from BD & Co). Fifteen dry discs (identical to those of positive and negative control discs but with unique identification print on one side, “NY”) were soaked with a solution of Compound A hydrochloride for about 5 minutes. The discs were then carefully transferred (using a sterile forceps) to a sterile empty Petri dish to decant off any excess test solution. Then one disc was applied to each of fifteen plates that were previously applied with positive and negative controls. The approximate loading of compound A was 22 μg/disk. Triplicate plates for each microorganism were assembled together and properly labeled prior to incubation. Plates for antibacterial testing were incubated at 30-35° C. (for 2 days) while for antifungal testing plates were incubated at 24° C. Plates were read for zones of inhibition using Vernier calipers.
(In general: Agar diffusion results depend on both activity and mobility in agar.)

The next data set concerns Staphylococcus aureus. In words: Agar diffusion antibacterial activity. It is filed as cell-based. The conditions noted are these: for Zone of Inhibition (mm) (average of 3 plates): Compound A approx. 22 μg/disk, Gentamicin 10 mcg per disk, 30-35° C., 2 days. How it is done: as §1
The test system of the next data set is Escherichia coli. In words: Agar diffusion antibacterial activity. The conditions noted are these: for Zone of Inhibition (mm) (average of 3 plates): Compound A approx. 22 μg/disk, Gentamicin 10 mcg per disk, 30-35° C., 2 days. It is filed as cell-based. The method, then:
as §1

Another data set concerns Salmonella typhimurium. In words: Agar diffusion antibacterial activity. It is filed as cell-based. The conditions noted are these: for Zone of Inhibition (mm) (average of 3 plates): Compound A approx. 22 μg/disk, Gentamicin 10 mcg per disk, 30-35° C., 2 days. The method, then:
as §1

Data set [2] is described as follows: Solubility of Compound A in solvent mixtures. In kind it is physicochemical.
Data set [3] can be described thus: pH solubility profile of Compound A in USP buffers at room temperature. It is filed as physicochemical. The conditions noted are these: for Approximate Solubility: room temperature. How it is done:
Testing was conducted using a reciprocating platform shaker (Heidolph® Promax 1020).

Data set [4] has as its system thymidine kinase locus of L5178Y mouse lymphoma cells. The conditions noted are these: vehicle DMSO, maximum concentration 5000 μg/ml.
Description: In vitro genotoxicity studies were conducted as a mouse lymphoma study and a chromosomal aberration test. The vehicle was DMSO and the maximum concentration to be tested was 5000 μg/ml for both studies.
In Vitro Mammalian Cell Gene Mutation Test
(L5178Y/TK^+/− Mouse Lymphoma Assay)
The purpose of this study was to evaluate the genotoxic potential of the test article based on quantitation of forward mutations at the thymidine kinase locus of L5178Y mouse lymphoma cells and the sizing of the resulting colonies.
Negative: Test article solvent (or vehicle)
Positive: Methyl methanesulfonate (MMS)
7,12-dimethylbenz(a)anthracene (DMBA)
The nature of data set [5]: Room temperature stability of the 4.20 mg/ml Compound A dosage form (Table 8). In kind it is physicochemical. The method, then: An example of a dosage form containing 4.20 mg/ml of Compound A that is suitable for parenteral (e.g., IM or IV) administration is provided in Table 8. The propylene glycol, PEG-300 and ethanol were added to a volumetric flask and mixed. The acetate buffer pH 5.0 (1M) was then added q.s to volume and the contents of the flask were mixed. Compound A was added to a separate clear dry volumetric flask. Approximately ⅓ of the total propylene glycol, PEG-300 and ethanol mixture was added and the resulting mixture was shaken vigorously for 2 minutes. The remainder of the mixture was then added to the flask to make up the volume. The contents were mixed by gentle shaking or by sonication until a clear solution was obtained. The solution was then filtered through a 0.22μ filter (Millex® GV) using a sterile disposable syringe or vial.

The nature of data set [6]: Room temperature stability of the 1.0 mg/ml parenteral dosage form with L-arginine (Table 10). It is filed as physicochemical. The conditions noted are these: for % Assay / pH: 1 mg/ml solution with L-arginine in normal saline (Table 10). How it is done:
An example of a dosage form containing 1.0 mg/ml of Compound A hydrochloride that is suitable for parenteral (e.g., IM or IV) administration is provided in Table 10. The L-arginine was dissolved in saline and the pH of the solution was adjusted to ˜8.0 using 0.05N HCl. Compound A was then added and the pH of the solution was adjusted to ˜7.40. The solution was then filtered through a 0.22 μm filter.

The next data set concerns rats (CD® strain). In words: Four-week intravenous toxicity study in rats. In kind it is in vivo. The conditions noted are these: 9 mg/kg/day, over a period of 28 days. How it is done:
The potential toxicity of an intravenously administered formulation of Compound A (average concentration analysis=95.6%) was studied for four weeks in rats (CD® strain). The vehicle (L-arginine dissolved in saline, 21.7 mg/ml), control (saline solution) and test solutions were administered by an intravenous infusion in the cannulated femoral vein through a dosing port. The dose was administered once per day at approximately the same time (±2 hours) each day throughout the duration of the study. The dose volume was 10 ml/kg per day. All doses were administered using a syringe infusion pump set for the appropriate infusion rate to deliver the proper dose volume over the required infusion duration of 15 minutes. All animals across all groups were examined prior to exposure and all the main study survivors were examined again at the end of study. […] Detailed clinical examinations were made for each animal daily during treatment (approx 30 to 60 minutes post-dosing).

Data set [7] deals with human peripheral blood lymphocytes (HPBL). Description: In vitro mammalian chromosome aberration test. In kind it is cell-based. Particulars: vehicle DMSO, maximum concentration 5000 μg/ml. An excerpt: [B] In Vitro Mammalian Chromosome Aberration Test
The purpose of this study was to evaluate the clastogenic potential of a test article based upon its ability to induce chromosome aberrations in human peripheral blood lymphocytes (HPBL).
Negative: Test Article Solvent (or Vehicle)
Positive: Mitomycin C (MMC, CAS number 50-07-7)
Cyclophosphamide (CP, CAS number 6055-19-2)

The mark [8] stands for this setting: versus Gentamicin (10 mcg per disk).
[9] abbreviates: pH 7.0 (0.1 M Potassium Phosphate).
Setting [10] is: pH 9.0 (0.1 M Potassium phosphate).
The mark [11] stands for this setting: 4.20 mg/ml Compound A in propylene glycol/ethanol/PEG-300/acetate buffer pH 5.0 (Table 8), batches 1-4.

Several values for one entry are separate records, joined by “and”; a condition that tells them apart may be missing. Equal values may be shown once.

Take `CCO/N=C(\C(=O)N[C@@H]1C(=O)N2C(C(=O)[O-])=C(Sc3nc(-c4cc[n+](C)cc4)cs3)CS[C@H]12)c1nsc(NC(C)=O)n1.Cl` [Compound A hydrochloride, (6R,7R)-7-[[(2Z)-2-(ethoxyimino)-2-[5-(acetamido)-1,2,4-thiadiazol-3-yl]acetyl]amino]-3-[[4-(1-methylpyridini-1-ium-4-yl)-1,3-thiazol-2-yl]sulfanyl]-8-oxo-5-thia-1-azabicylo[4.2.0]oct-2-ene-2-carboxylate hydrochloride]: the “antibacterial activity (in words)” value in [1] is on record as “moderate activity”. Besides, the “Zone of Inhibition (mm) (average of 3 plates)” value in [1] was 9.68 mm; in the data set with Staphylococcus aureus, 36.71 mm; in the data set on Escherichia coli, 23.82 mm; in the data set on Salmonella typhimurium, 21.12 mm. For the same molecule, the entries for the “antibacterial activity relative to Gentamicin” value with Staphylococcus aureus (setting [8]), in the data set on Escherichia coli (setting [8]) and in the data set with Salmonella typhimurium (setting [8]) were 173%, 118% and 117%, respectively.
Turning to `CCO/N=C(\C(=O)N[C@@H]1C(=O)N2C(C(=O)[O-])=C(Sc3nc(-c4cc[n+](C)cc4)cs3)CS[C@H]12)c1nsc(NC(C)=O)n1` [Compound A, (6R,7R)-7-[[(2Z)-2-(ethoxyimino)-2-[5-(acetamido)-1,2,4-thiadiazol-3-yl]acetyl]amino]-3-[[4-(1-methylpyridinium-4-yl)-1,3-thiazol-2-yl]sulfanyl]-8-oxo-5-thia-1-azabicylo[4.2.0]oct-2ene-2-carboxylate], the “Approximate Solubility” value in data set [2] (8% Propylene Glycol, 2% Ethanol, 2% PEG-300, 5% 1-Methyl-2-pyrrolidinone, 83% Acetate buffer pH 5 (1M)) was 2000 µg/mL; in data set [2] (8% Propylene Glycol, 2% Ethanol, 2% PEG-300, 88% Acetate buffer pH 5 (1M)), 1800 µg/mL; in [2] (8% Propylene Glycol, 2% Ethanol, 5% Benzyl alcohol, 85% Acetate buffer pH 5 (1M) (first entry, r11)), 1500 µg/mL; in data set [2] (8% Propylene Glycol, 2% Ethanol, 5% Benzyl alcohol, 85% Acetate buffer pH 5 (1M) (second entry, r17)), 3500 µg/mL; in data set [2] (8% Propylene Glycol, 2% Ethanol, 90% Acetate buffer pH 5 (1M)), 1500 µg/mL; in data set [2] (8% Propylene Glycol, 2% PEG-300, 5% Benzyl alcohol, 85% Acetate buffer pH 5 (1M)), 4000 µg/mL. In addition, the “Approximate Solubility” value in data set [2] (8% Propylene Glycol, 9% PEG-300, 83% Acetate buffer pH 5 (1M)) is 1100 µg/mL; in data set [2] (10% Sodium benzoate in Normal Saline, pH 6.5) it was 4200 µg/mL; in data set [2] (10% Sodium benzoate in water, pH 6.3), 4200 µg/mL; in [2] (40% Propylene Glycol, 2.5% Ethanol, 57.5% Acetate buffer pH 5), 4200 µg/mL; in data set [2] (60% Propylene Glycol, 2.5% Ethanol, 37.5% Acetate buffer pH 5), greater than 25000 µg/mL; in data set [2] (Dimethyl sulfoxide (DMSO)) it was 212000 µg/mL. Moreover, the “Approximate Solubility” value in [2] (Ethanol) worked out at 1500 µg/mL; in data set [2] (Methanol), 400000 µg/mL; in data set [2] (Sterile water for injection USP), 800 µg/mL; in data set [3] (pH 1.0 (0.2 M KCl—HCl)) it was 500 µg/mL; in data set [3] (pH 3.0 (0.1 M Sodium acetate)) it was 4700 µg/mL; in data set [3] (pH 5.0 (0.05 M Sodium acetate)), 800 µg/mL. The “Approximate Solubility” value worked out at 400 µg/mL in [3] (pH 5.0 (0.1 M Sodium acetate)), 500 µg/mL in data set [3] (pH 5.0 (0.5 M Sodium acetate)), 400 µg/mL in data set [3] (setting [9]) and 13300 µg/mL in data set [3] (setting [10]). For the same molecule, the Description entry is on record as “Solution” in [3] (pH 1.0 (0.2 M KCl—HCl)); “Solution” in data set [3] (pH 3.0 (0.1 M Sodium acetate)); “Gel” in data set [3] (pH 5.0 (0.05 M Sodium acetate)); “Gel” in data set [3] (pH 5.0 (0.1 M Sodium acetate)); “Gel” in [3] (pH 5.0 (0.5 M Sodium acetate)); “Gel” in data set [3] (setting [9]). In addition, the Description result in data set [3] (setting [10]) is “Solution”. In data set [4], the “genotoxicity result, mouse lymphoma study” value is on record as “negative”. The “Initial Assay (%)” value in [5] (setting [11]) is 99.2% and 101.3% and 100.5% and 98.5%. In data set [5] (setting [11]), the “Initial pH” value is 6.06 and 6.08 and 6.13. In addition, the “Final Assay (%)” value was 96.9 (3 hrs at RT) % in [5] (4.20 mg/ml Compound A solution (Table 8), 3 hrs at RT, batch 4); 97.9 (5 hrs at RT) % and 95.6 (5 hrs at RT) % in data set [5] (4.20 mg/ml Compound A solution (Table 8), 5 hrs at RT, batches 2 and 3). The “Final pH” value in data set [5] (4.20 mg/ml Compound A solution (Table 8), batch 4, 3 hrs at RT) is recorded as 5.99. Moreover, the figures for the “% Assay” value in data set [6] (2 hours), in [6] (4 hours) and in data set [6] (Initial) were 95.3%, 95.1% and 95.7%, respectively. Further, the pH is 7.34 in [6] (2 hours), 7.41 in data set [6] (4 hours) and 7.35 in [6] (Initial). The “stability of the solution (in words)” value in [6] (solution containing 1 mg/ml of Compound A) is “stable”. The adverse clinical events result with rats (CD® strain) is “did not show any adverse clinical events”. In addition, the “genotoxicity result, chromosomal aberration study using human lymphocytes” value in data set [7] was “negative”.
For the molecule Gentamicin [reference compound], the “Zone of Inhibition (mm) (average of 3 plates)” value in [1] was found to be 20.17 mm; in the data set with Staphylococcus aureus it was 21.27 mm; in the data set with Escherichia coli it was 20.27 mm; in the data set on Salmonella typhimurium it was 18.03 mm.
